US20110039763A1, “TARGETED ANTIMICROBIAL MOIETIES” (C3 JIAN, INC., priority 2009, published 2011)
“Also recorded” adds a separate entry of the source. Square brackets hold non-standard residues; d marks the D form. Ends that are not written are not given here. dOrn = NCCC[C@@H](N)C(=O)O; Orn = NCCC[C@H](N)C(=O)O

Tests used:
microorganisms [1] = experiment: Targeting peptide binding to target microorganisms (Tables 3, 10, 12); details: microorganism(s) the targeting peptide binds, preferably 1x PBS
microorganisms [2] = experiment: Morphology, biofilm and growth disrupting peptides (Table 5); format: cell-based; parameters: key: A: Peptide aggregates; B: Less hyphal formation; Clumps; Diffuse clumps and small polyps; F: Diffuse growth; H: Thin; I: Growth inhibition; Microcolony formation; Rippled; Small polyps; Thick; W: Halo formation on top, microlonies on bottom
From the text: In certain embodiments peptides that induce alterations in phenotype or other biological activities can also be used as antimicrobial effector moieties.

[3] = binding in aqueous buffers varied with peptide solubility
[4] = binding in aqueous buffers that varied with peptide solubility

Substance	Target(s) (microorganisms [1]; [3])	also measured
PF-643 (chain 1 VRCRL; chain 2 VRCRL; Peptide with targeting and/or antimicrobial activity)	Mycobacteria spp	Organism, effect (microorganisms [2]; E. faecalis): E. faecalis (R); Organism, effect (microorganisms [2]; MRSA): MRSA (C); Organism, effect (microorganisms [2]; S. pneumoniae): S. pneumoniae (R)
PF-644 (chain 1 TSGLIIGENGLNGL; chain 2 TSGLIIGENGLNGL; Peptide with targeting and/or antimicrobial activity)	Mycobacteria spp	Organism, effect (microorganisms [2]; S. pneumoniae): S. pneumoniae (H)
PF-645 (chain 1 SNSVQQG; chain 2 SNSVQQG; Peptide with targeting and/or antimicrobial activity)	Mycobacteria spp	Organism, effect (microorganisms [2]; C. albicans): C. albicans (B); Organism, effect (microorganisms [2]; S. pneumoniae): S. pneumoniae (I)
PF-646 (chain 1 APASPGRRPG; chain 2 APASPGRRPG; Peptide with targeting and/or antimicrobial activity)	Mycobacteria spp	Organism, effect (microorganisms [2]; C. albicans): C. albicans (B); Organism, effect (microorganisms [2]; S. pneumoniae): S. pneumoniae (H)
PF-647 (chain 1 GTFLGQKCAAATAS; chain 2 GTFLGQKCAAATAS; Peptide with targeting and/or antimicrobial activity)	Mycobacteria spp	Organism, effect (microorganisms [2]; C. albicans): C. albicans (B); Organism, effect (microorganisms [2]; S. pneumoniae): S. pneumoniae (R)
PF-649 (chain 1 CPRYPFVDVGPAGPWRARWRVGS; chain 2 CPRYPFVDVGPAGPWRARWRVGS; Peptide with targeting and/or antimicrobial activity)	Mycobacteria spp	Organism, effect (microorganisms [2]; E. faecalis): E. faecalis (R)
PF-651 (chain 1 PRWPTGAGRHR; chain 2 PRWPTGAGRHR; Peptide with targeting and/or antimicrobial activity)	Mycobacteria spp	Organism, effect (microorganisms [2]; S. pneumoniae): S. pneumoniae (H)
PF-652 (chain 1 FLAPARPDLQAQRQALAQ; chain 2 FLAPARPDLQAQRQALAQ; Peptide with targeting and/or antimicrobial activity)	Mycobacteria spp	Organism, effect (microorganisms [2]; S. pneumoniae): S. pneumoniae (A)
PF-653 (chain 1 QSVHPLPAETPVADVI; chain 2 QSVHPLPAETPVADVI; Peptide with targeting and/or antimicrobial activity)	Mycobacteria spp	Organism, effect (microorganisms [2]; S. pneumoniae): S. pneumoniae (H)
PF-654 (chain 1 LSGRLAGRR; chain 2 LSGRLAGRR; Peptide with targeting and/or antimicrobial activity)	Mycobacteria spp	Organism, effect (microorganisms [2]; C. albicans): C. albicans (B); Organism, effect (microorganisms [2]; MRSA): MRSA (R); Organism, effect (microorganisms [2]; S. pneumoniae): S. pneumoniae (A)
PF-656 (chain 1 RGMFVPFHDVDCVQ; chain 2 RGMFVPFHDVDCVQ; Peptide with targeting and/or antimicrobial activity)	Mycobacteria spp	Organism, effect (microorganisms [2]; MRSA): MRSA (R)
PF-657 (chain 1 YVANYTITQFGRDFDDRLAVAIHFA; chain 2 YVANYTITQFGRDFDDRLAVAIHFA; Peptide with targeting and/or antimicrobial activity)	Mycobacteria spp	Organism, effect (microorganisms [2]; C. jeikeium): C. jeikeium (D); Organism, effect (microorganisms [2]; E. faecalis): E. faecalis (D); Organism, effect (microorganisms [2]; MRSA): MRSA (D); Organism, effect (microorganisms [2]; S. epidermidis): S. epidermidis (C); Organism, effect (microorganisms [2]; S. pneumoniae): S. pneumoniae (H)
PF-800 (WYYFDNNGYM; Peptide with targeting and/or antimicrobial activity)	S. mutans	–
PF-C003 (FCSVDHDVITIAADHVKQGAEA; Peptide with targeting and/or antimicrobial activity)	A. naeslundii; also recorded: P. gingivalis; also recorded: S. mutans	–
PF-C008 (AQPRRTWLVNFGEVPSPGLTNDGMPDH; Peptide with targeting and/or antimicrobial activity)	A. naeslundii	–
PF-C034 (HPMPITVRSRKPGPLTAPSEH; Peptide with targeting and/or antimicrobial activity)	S. mutans; also recorded: E. coli	–
PF-C045 (FREGMGWPLSNEGSPTAPLPKHRNQV; Peptide with targeting and/or antimicrobial activity)	A. naeslundii; also recorded: T. denticola	–
PF-C050 (QGLARPVLRRIPL; Peptide with targeting and/or antimicrobial activity)	A. naeslundii; also recorded: S. mutans	–
PF-C063 (SHFRKGD; Peptide with targeting and/or antimicrobial activity)	A. naeslundii; also recorded: F. nucleatum; also recorded: S. mutans	–
PF-C068 (LNLFASI; Peptide with targeting and/or antimicrobial activity)	A. naeslundii; also recorded: F. nucleatum; also recorded: S. mutans	–
PF-C080 (INIPGLF; Peptide with targeting and/or antimicrobial activity)	A. naeslundii; also recorded: F. nucleatum; also recorded: S. mutans	–
PF-C093 (EKLGTMV; Peptide with targeting and/or antimicrobial activity)	A. naeslundii; also recorded: F. nucleatum; also recorded: S. mutans	–

Substance	Target(s) (microorganisms [1]; [3])	also measured
PF-C134 (NELMKYPATLTATATTPGIKYSHLCSVCL; Peptide with targeting and/or antimicrobial activity)	A. naeslundii; also recorded: F. nucleatum; also recorded: P. gingivalis; also recorded: S. mutans; also recorded: T. denticola	–
PF-C160 (AASGFTYCASNGVWHPY; Peptide with targeting and/or antimicrobial activity)	F. nucleatum	–
PF-C259 (AEIQPHCLSVL; Peptide with targeting and/or antimicrobial activity)	F. nucleatum; also recorded: S. mutans	–
PF-C271 (FFPSYYSIIITYF; Peptide with targeting and/or antimicrobial activity)	A. naeslundii; also recorded: F. nucleatum; also recorded: P. gingivalis; also recorded: S. mutans; also recorded: T. denticola	–
PF-C273 (KNMLKRRMKQKRLFDEEDRLRVLSKYTKSYY; Peptide with targeting and/or antimicrobial activity)	A. naeslundii; also recorded: P. gingivalis; also recorded: S. mutans; also recorded: T. denticola	–
PF-C285 (FTIIELKKQKIKHGENNKKTAHPLNEPFCARA; Peptide with targeting and/or antimicrobial activity)	A. naeslundii; also recorded: F. nucleatum; also recorded: P. gingivalis; also recorded: S. mutans; also recorded: T. denticola	–
PF-S004 (VLLNIFRTLLEFFSPSNAPGAEDVPLPDTQA; Peptide with targeting and/or antimicrobial activity)	S. epidermidis and MRSA and C. jeikeium	–
PF-S007 (VVAGVVLLTALAVGSKRKEKKQIKEIQRLLAATR; Peptide with targeting and/or antimicrobial activity)	S. epidermidis and MRSA	–
PF-S015 (IENLERGARRPP; Peptide with targeting and/or antimicrobial activity)	S. epidermidis and MRSA and C. jeikeium	–
PF-S018 (GMPQIPRLRI; Peptide with targeting and/or antimicrobial activity)	S. epidermidis and M. luteus and C. albicans and MRSA and E. faecalis and C. jeikeium and C. jejuni	–
PF-S023 (MAEDERRALKRRTNRGRTRTRKRITV; Peptide with targeting and/or antimicrobial activity)	S. epidermidis and MRSA	–
PF-S024 (SKRGRKRKDRRKKKANHGKRPNS; Peptide with targeting and/or antimicrobial activity)	–	Target(s) (microorganisms [1]; [4]): Corynebacteria
PF-S026 (TELKYNGEEYLLLTQRDILAVIEK; Peptide with targeting and/or antimicrobial activity)	S. epidermidis and MRSA and C. jeikeium	–
PF-S029 (TSDTQSQSPWLFDNADIVNIYPVQLMHSSDND; Peptide with targeting and/or antimicrobial activity)	M. luteus; also recorded: P. mirabilis; also recorded: E. coli; also recorded: C. albicans; also recorded: C. jeikeium; also recorded: C. jejuni	–
Py Pf 12 ([dS]KG[Orn][dS]SGK[dOrn]ES; not fully specified (bridges))	–	Target(s) (microorganisms [1]; [4]): P. fluorescens
TT-305 (ARNALNMRDVPVDAAIIGIIDGMDEE; Peptide with targeting and/or antimicrobial activity)	–	Target(s) (microorganisms [1]; [4]): F. nucleatum
TT-306 (KILNEAEGKLLKVIEKNGEIDIEEI; Peptide with targeting and/or antimicrobial activity)	–	Target(s) (microorganisms [1]; [4]): F. nucleatum
TT-307 (NGDKKAKEELDKWDEVIKELNIQF; Peptide with targeting and/or antimicrobial activity)	–	Target(s) (microorganisms [1]; [4]): F. nucleatum
TT-308 (GLVIIPNLIALIILFSQVRQQTKDYFSNPKLSSR; Peptide with targeting and/or antimicrobial activity)	–	Target(s) (microorganisms [1]; [4]): F. nucleatum
TT-309 (EPLPLTKYDKKDTEMKKVFKEILAGKVGYEKEEE; Peptide with targeting and/or antimicrobial activity)	–	Target(s) (microorganisms [1]; [4]): F. nucleatum
TT-310 (TKLKKNNKLLSAKKENTLHTKDK; Peptide with targeting and/or antimicrobial activity)	–	Target(s) (microorganisms [1]; [4]): F. nucleatum
TT-311 (AIFDAMHNL; Peptide with targeting and/or antimicrobial activity)	–	Target(s) (microorganisms [1]; [4]): S. mutans; also recorded: S. sobrinus
